From BindingDB's records for doi:10.1021/jm0490641 (Boehringer Ingelheim Pharma, 2005)

Biological target: Calcitonin gene-related peptide receptor (Callithrix jacchus)
Experiment: Affinity against calcitonin gene related peptide receptor (1 uM) in marmoset tissue homogenates using [125I]CGRP as radioligand after 180 minutes of incubation at pH 7.40
Settings: pH 7.4

- IC50: 2.7 nM
Compound: NCCCC[C@@H](NC(=O)[C@H](Cc1cc(Br)c(O)c(Br)c1)NC(=O)N1CCC(n2c(=O)[nH]c3ccccc32)CC1)C(=O)N1CCN(c2ccncc2)CC1 [4-(2-Oxo-2,3-dihydro-benzoimidazol-1-yl)-piperidine-1-carboxylic acid [(S)-1-[(R)-5-amino-1-(4-pyridin-4-yl-piperazine-1-carbonyl)-pentylcarbamoyl]-2-(3,5-dibromo-4-hydroxy-phenyl)-ethyl]-amide]
